The test system of series [1] is Co-cultures of rat HSC and Human hepatocytes. In words: Co-cultures of rat HSC and human hepatocytes with Tβ4, hepatocyte count after one week. It counts as cell-based. The note with it: greater than 100 ng/ml of Tβ4; one week in culture. Here is the method: Hepatocyte Growth Factor (HGF) is a trophic factor for hepatocytes. […] Co-cultures of rat HSC and Human hepatocytes are prepared. Controls are incubated with the regular hormonally-defined medium used for hepatocytes. Experimental cultures receive greater than 100 ng/ml of Tβ4 in the same culture medium. Cells are harvested after one week using collagenase and trypsin. The hepatocytes are separated from the HSC by low speed centrifugation and the cells counted and used for total RNA extraction. […] The purity of the cell fractions are determined after staining with anti-human albumin antibodies (rat HSC are negative). RNA is used for RT-PCR and the expression of liver specific genes analyzed using human primers. Rat primers are used to determine the degree of contamination of rat HSC.

In series [2] the test system is Human hepatic stellate cells HSC. Description: RT-PCR analysis of mRNA expression in human hepatic stellate cells cultured with Tβ4. The series is classed as cell-based. Here is the method:
Human hepatic stellate cells HSC were obtained from a liver cell mixture purchased from ADMET technologies after separation on an OptiPrep® Density Gradient Medium (Sigma). They were cultured until confluent and then plated at a density of 250,000 cells/60-mm dish and cultured in MEM supplemented with 10% bovine fetal serum, 1% non-essential amino acids and antibiotics. The cells were maintained in culture for approximately 48 hours and when semi-confluent they were serum-starved overnight using MEM supplemented with 1% albumin, antibiotics and 1% non-essential amino acids. RNA was extracted with Trizol (Invitrogen) and RT-PCR performed using primers. The expression of GAPDH was used as a control. All the experiments were performed in duplicate.
In many instances, the increase was dose dependent. […] The expression of another marker of HSC differentiation, namely PDGF-β receptor, was inhibited in a dose-dependent manner (75% with 1 μg/ml of Tβ4).

[3] abbreviates: HSC cultured for 24 hours with different concentrations of Tβ4, RT-PCR, GAPDH control.
Setting [4] is: HSC cultured for 24 hours, RT-PCR.

For the substance thymosin beta 4 [Tβ4], in series [1], the “hepatocyte proliferation / number” value was “proliferate and increase in number”. Moreover, the “inhibition of expression of PDGF-β receptor” value in series [2] (1 μg/ml of Tβ4, HSC cultured for 24 hours, dose-dependent) came out at 75%. For the same substance, in series [2] (1 mg/ml of Tβ4, HSC cultured for 24 hours), the “increase in expression of HGF mRNA” value amounted to 4 fold. In series [2] (setting [3]), the “increase in expression of GSK 3β mRNA” value worked out at 2.5 fold, the “increase in expression of α-SMA mRNA” value is given as 4 fold and the “increase in expression of β-catenin mRNA” value is recorded as 3 fold. Moreover, in series [2] (setting [4]), the “Tβ4 concentration giving maximal expression of α-SMA” value was 1 µg/mL and the “Tβ4 concentration giving maximal increase in β-catenin mRNA” value worked out at 1 ng/mL.
